Legend:
[1] = target: PaFS (full-length fusicoccadiene synthase) (Diaporthe amygdali, UniProt A2PZA5); assay: EnzChek pyrophosphate release, steady-state kinetics, A360; type: biochemical; settings: Mg2+ 2.5 mM, pH 7.5; cyclization to fusicoccadiene; cyclase domain
[2] = target: PaFSCY (individual cyclase domain of fusicoccadiene synthase) (Diaporthe amygdali, UniProt A2PZA5); assay: as above; type: biochemical; settings: Mg2+ 2.5 mM, pH 7.5; cyclization to fusicoccadiene
Sequence of PaFSCY (individual cyclase domain of fusicoccadiene synthase) (A2PZA5 1-344): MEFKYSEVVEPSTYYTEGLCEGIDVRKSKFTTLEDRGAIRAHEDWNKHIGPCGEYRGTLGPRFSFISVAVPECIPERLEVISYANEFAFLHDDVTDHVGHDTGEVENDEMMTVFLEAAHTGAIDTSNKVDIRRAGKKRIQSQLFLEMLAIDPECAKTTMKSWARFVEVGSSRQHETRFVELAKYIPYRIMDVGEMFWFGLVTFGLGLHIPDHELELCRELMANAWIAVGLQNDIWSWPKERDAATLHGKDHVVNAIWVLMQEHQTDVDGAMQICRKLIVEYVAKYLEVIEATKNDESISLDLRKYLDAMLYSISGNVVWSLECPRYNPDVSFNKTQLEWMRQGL

Sequence of PaFS (full-length fusicoccadiene synthase) (A2PZA5 whole entry, the tested form may be a part): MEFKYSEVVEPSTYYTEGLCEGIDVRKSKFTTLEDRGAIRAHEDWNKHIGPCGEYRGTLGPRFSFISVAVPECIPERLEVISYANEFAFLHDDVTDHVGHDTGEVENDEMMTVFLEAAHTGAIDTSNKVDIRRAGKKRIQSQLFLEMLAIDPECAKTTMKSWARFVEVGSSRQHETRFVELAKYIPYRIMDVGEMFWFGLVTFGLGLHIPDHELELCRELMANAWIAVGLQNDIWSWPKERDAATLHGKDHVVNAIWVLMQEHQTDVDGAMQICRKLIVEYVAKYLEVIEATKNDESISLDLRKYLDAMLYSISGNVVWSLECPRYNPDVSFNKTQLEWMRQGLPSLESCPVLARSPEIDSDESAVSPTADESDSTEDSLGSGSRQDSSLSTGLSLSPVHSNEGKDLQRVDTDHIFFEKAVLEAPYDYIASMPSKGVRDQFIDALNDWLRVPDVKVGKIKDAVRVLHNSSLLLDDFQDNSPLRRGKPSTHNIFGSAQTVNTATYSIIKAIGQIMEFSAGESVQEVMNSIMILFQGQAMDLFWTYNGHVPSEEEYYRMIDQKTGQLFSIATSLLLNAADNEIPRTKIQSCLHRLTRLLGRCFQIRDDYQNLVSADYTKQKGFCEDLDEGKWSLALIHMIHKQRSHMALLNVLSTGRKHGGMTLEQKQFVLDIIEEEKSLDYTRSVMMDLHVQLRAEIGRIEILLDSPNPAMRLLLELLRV

CC(C)=CCC/C(C)=C/CC/C(C)=C/CC/C(C)=C/COP(=O)(O)OP(=O)(O)O [GGPP, geranylgeranyl diphosphate]
KM [1]: (PaFS, PaFSLL, and PaFSCY) are most efficient
KM [2]: (PaFS, PaFSLL, and PaFSCY) are most efficient

— article PMC10996616 (bioRxiv, 2024)
